In brackets after ≈: the same amount, converted by molar mass. No end group written: not given here.
Key:
Acinetobacter baumannii = format: cell-based
Method: (§1) The MIC of BMAP‐27B and other antibiotics was determined using the broth microdilution method, following the guidelines established by the Clinical and Laboratory Standards Institute (CLSI). Briefly, the bacterial cultures were grown to the logarithmic growth phase and subsequently diluted in Mueller–Hinton broth (MHB) to achieve a final concentration of 1 × 10^6 CFU/ml. BMAP‐27B and the other antibiotics were prepared in twofold serial dilutions in MHB and mixed with an equal volume of bacterial suspension in 96‐well polypropylene microtiter plates.

CREC6 and CRKP2 = format: in vitro ADME, Escherichia coli and Klebsiella pneumoniae
Method: (§2) The antibacterial activity of the treated peptide was determined using CREC6 and CRKP2 as models. Bacterial colony survival was quantified by measuring the absorbance at 600 nm using a microplate reader. The activity of the peptide was also determined in the presence of NaCl to assess its salt sensitivity, with a final NaCl concentration of 400 mM. […] The bactericidal efficacy of BMAP‐27B against bacteria in SIF or SGF was evaluated using the plate counting method at different time points.

bacterial suspension = assay: Antimicrobial activity in varying concentrations of proteases and serum; format: in vitro ADME; conditions: trypsin or proteinase K, 1:1 (v/v) incubation 1 h, diluted to 2×MIC, then 18-24 h at 37℃ with bacteria (Figure S1)
Method: The above mixture was added to the bacterial suspension and incubated at 37℃ for 18-24 hours. Finally, the absorbance of […] was measured and used to calculate the survival rate of bacteria.

CREC6 [1] = format: in vitro ADME, Escherichia coli
Method: as §2

BALB/c mice = assay: In vivo biocompatibility; conditions: 5, 10, and 20 mg/kg intraperitoneal, once daily
Method: Male BALB/c mice (6–8 weeks of age, 18 ± 2 g) were purchased from Tengxin Biotechnology Co., Ltd., for the animal studies. Healthy male BALB/c mice were randomly divided into four groups, with six mice per group. Mice in the three experimental groups received intraperitoneal injections of peptide solutions at doses of 5, 10, and 20 mg/kg, while the control group received injections of PBS. Injections were administered once daily for five consecutive days, and the body weight of each mouse was recorded daily. On the sixth day, the mice were euthanized under deep anesthesia and blood samples were collected for biochemical analysis, including AST, CREA, UREA, and ALT. The livers and kidneys were subsequently weighed, fixed in 4% paraformaldehyde, and subjected to histopathological examination using H&E staining.

[2] = format: binding; conditions: pH 7.4
Method: The detailed steps of molecular docking are provided in the Supporting Information. Microcalorimetric experiments were conducted to examine the interaction between BMAP‐27B and the divalent cation zinc (Zn^2+) using ITC to determine the binding affinity of BMAP‐27B for Zn^2+. Both BMAP‐27B and Zn^2+ were dissolved in PBS (pH 7.4). Before the experiment, all samples were degassed in a sonication bath for 10 min. At 25°C, Zn^2+ was sequentially injected into the calorimetric cell containing BMAP‐27B, with a total of 25 injections performed, allowing for a 180‐s equilibration interval between injections. The resulting data were analyzed using software to calculate K d.

CRAB1 = assay: MIC, broth microdilution; format: cell-based; conditions: Acinetobacter baumannii, MHB, 1 × 10^6 CFU/ml, 16–18 h, 37°C, independent triplicates
Method: as §1

CRAB2 = assay: MIC, broth microdilution; format: cell-based; conditions: Acinetobacter baumannii, MHB, 1 × 10^6 CFU/ml, 16–18 h, 37°C, independent triplicates
Method: as §1

CRCB1 = assay: MIC, broth microdilution; format: cell-based; conditions: Citrobacter, MHB, 1 × 10^6 CFU/ml, 16–18 h, 37°C, independent triplicates
Method: as §1

CRCB2 = assay: MIC, broth microdilution; format: cell-based; conditions: Citrobacter, MHB, 1 × 10^6 CFU/ml, 16–18 h, 37°C, independent triplicates
Method: as §1

CRCB3 = assay: MIC, broth microdilution; format: cell-based; conditions: Citrobacter, MHB, 1 × 10^6 CFU/ml, 16–18 h, 37°C, independent triplicates
Method: as §1

CREC1 = assay: MIC, broth microdilution; format: cell-based; conditions: Escherichia coli, MHB, 1 × 10^6 CFU/ml, 16–18 h, 37°C, independent triplicates
Method: as §1

CREC2 = assay: MIC, broth microdilution; format: cell-based; conditions: Escherichia coli, MHB, 1 × 10^6 CFU/ml, 16–18 h, 37°C, independent triplicates
Method: as §1

CREC3 = assay: MIC, broth microdilution; format: cell-based; conditions: Escherichia coli, MHB, 1 × 10^6 CFU/ml, 16–18 h, 37°C, independent triplicates
Method: as §1

CREC4 = assay: MIC, broth microdilution; format: cell-based; conditions: Escherichia coli, MHB, 1 × 10^6 CFU/ml, 16–18 h, 37°C, independent triplicates
Method: as §1

CREC5 = assay: MIC, broth microdilution; format: cell-based; conditions: Escherichia coli, MHB, 1 × 10^6 CFU/ml, 16–18 h, 37°C, independent triplicates
Method: as §1

CREC6 [3] = assay: MIC, broth microdilution; format: cell-based; conditions: Escherichia coli, MHB, 1 × 10^6 CFU/ml, 16–18 h, 37°C, independent triplicates
Method: as §1

CREC7 = assay: MIC, broth microdilution; format: cell-based; conditions: Escherichia coli, MHB, 1 × 10^6 CFU/ml, 16–18 h, 37°C, independent triplicates
Method: as §1

CRKP1 = assay: MIC, broth microdilution; format: cell-based; conditions: Klebsiella pneumoniae, MHB, 1 × 10^6 CFU/ml, 16–18 h, 37°C, independent triplicates
Method: as §1

CRKP2 [4] = assay: MIC, broth microdilution; format: cell-based; conditions: Klebsiella pneumoniae, MHB, 1 × 10^6 CFU/ml, 16–18 h, 37°C, independent triplicates
Method: as §1

CRKP3 = assay: MIC, broth microdilution; format: cell-based; conditions: Klebsiella pneumoniae, MHB, 1 × 10^6 CFU/ml, 16–18 h, 37°C, independent triplicates
Method: as §1

CRKP4 = assay: MIC, broth microdilution; format: cell-based; conditions: Klebsiella pneumoniae, MHB, 1 × 10^6 CFU/ml, 16–18 h, 37°C, independent triplicates
Method: as §1

CRKP5 = assay: MIC, broth microdilution; format: cell-based; conditions: Klebsiella pneumoniae, MHB, 1 × 10^6 CFU/ml, 16–18 h, 37°C, independent triplicates
Method: as §1

CRKP6 = assay: MIC, broth microdilution; format: cell-based; conditions: Klebsiella pneumoniae, MHB, 1 × 10^6 CFU/ml, 16–18 h, 37°C, independent triplicates
Method: as §1

[5] = tested on: En. faecium (Clinical; MDR; pig, faeces), lower row; assay: MIC, broth microdilution; format: cell-based; conditions: Enterococcus faecium, En. faecium clinical MDR isolate, MHB, 16–18 h, 37°C, independent triplicates
Method: as §1

[6] = tested on: En. faecium (Clinical; MDR; pig, faeces), upper row; assay: MIC, broth microdilution; format: cell-based; conditions: Enterococcus faecium, En. faecium clinical MDR isolate, MHB, 16–18 h, 37°C, independent triplicates
Method: as §1

P. aeruginosa UCBPP-PA01 = assay: MIC, broth microdilution; format: cell-based; conditions: Pseudomonas aeruginosa, UCBPPPA01, MHB, 1 × 10^6 CFU/ml, 16–18 h, 37°C, independent triplicates
Method: as §1

P. aeruginosa UCBPP-PA14 = assay: MIC, broth microdilution; format: cell-based; conditions: Pseudomonas aeruginosa, MHB, 1 × 10^6 CFU/ml, 16–18 h, 37°C, independent triplicates
Method: as §1

PRCB1 = assay: MIC, broth microdilution; format: cell-based; conditions: Citrobacter, MHB, 1 × 10^6 CFU/ml, 16–18 h, 37°C, independent triplicates
Method: as §1

PREC1 = assay: MIC, broth microdilution; format: cell-based; conditions: Escherichia coli, MHB, 1 × 10^6 CFU/ml, 16–18 h, 37°C, independent triplicates
Method: as §1

PREC2 = assay: MIC, broth microdilution; format: cell-based; conditions: Escherichia coli, MHB, 1 × 10^6 CFU/ml, 16–18 h, 37°C, independent triplicates
Method: as §1

PREC3 = assay: MIC, broth microdilution; format: cell-based; conditions: Escherichia coli, MHB, 1 × 10^6 CFU/ml, 16–18 h, 37°C, independent triplicates
Method: as §1

S. aureus ATCC = assay: MIC, broth microdilution; format: cell-based; conditions: Staphylococcus aureus, MHB, 1 × 10^6 CFU/ml, 16–18 h, 37°C, independent triplicates
Method: as §1

Salmonella SL1344 = assay: MIC, broth microdilution; format: cell-based; conditions: MHB, 1 × 10^6 CFU/ml, 16–18 h, 37°C, independent triplicates
Method: as §1

CRKP2 [7] = assay: Mouse peritonitis model induced by CRKP2; format: in vivo, BALB/c mice; conditions: 1.0 × 10^8 CFU CRKP2 i.p.; treatment at 1 and 6 h; BMAP‐27B 3, 6 or 9 mg/kg, MEM 10 mg/kg, combination 3 + 10 mg/kg; tissues 24 h after infection
Method: Male BALB/c mice were used in this study, with six mice per group. The mice were infected via an intraperitoneal injection with a suspension of 1.0 × 10^8 CFU of CRKP2. At 1 and 6 h postinfection, the mice were treated with PBS, BMAP‐27B at doses of 3, 6, or 9 mg/kg, MEM at 10 mg/kg alone, or a combination of BMAP‐27B (3 mg/kg) and MEM (10 mg/kg). After 24 h of bacterial challenge, the surviving mice were euthanized by cervical dislocation. The kidneys, livers, spleens, and lungs of each mouse were harvested within […] postinfection. A portion of these organs was taken for histologic analysis using H&E staining, while the remaining tissue samples were weighed, homogenized in sterile normal saline, and serially diluted in saline. A volume of 100 µl of the homogenate dilutions was uniformly plated onto agar plates containing MEM (8 μg/ml). After overnight incubation at 37°C, colonies were counted and the results were expressed as CFU/g.

GRFKRLRKKLKKLFKKLSPVIPLLHLG [BMAP-27B]
MIC (Acinetobacter baumannii): ≤ 6.250 µg/mL
efficacy after co‐incubation with fetal bovine serum (CREC6 and CRKP2): maintained considerable efficacy
protease concentration resulting in loss of activity (bacterial suspension): above 200 μg/ml
activity in simulated intestinal fluid (SIF) (CREC6 [1]): no activity
viable bacterial count after incubation with simulated gastric fluid (SGF) (CREC6 [1]): lower than that of the control group
relative weights of the heart, liver, spleen, and kidneys (BALB/c mice): no significant differences
Kd [2]: 31.36 µM

C[C@@H](O)[C@H]1C(=O)N2C(C(=O)O)=C(S[C@@H]3CN[C@H](C(=O)N(C)C)C3)[C@H](C)[C@H]12 [MEM, meropenem]
MIC (CRAB1): > 32 µg/mL
MIC (CRAB2): > 32 µg/mL
MIC (CRCB1): 32 µg/mL (≈ 83.4 µM)
MIC (CRCB2): 32 µg/mL (≈ 83.4 µM)
MIC (CRCB3): 32 µg/mL (≈ 83.4 µM)
MIC (CREC1): > 32 µg/mL
MIC (CREC2): 16 µg/mL (≈ 41.7 µM)
MIC (CREC3): 32 µg/mL (≈ 83.4 µM)
MIC (CREC4): > 32 µg/mL
MIC (CREC5): 32 µg/mL (≈ 83.4 µM)
MIC (CREC6 [3]): 32 µg/mL (≈ 83.4 µM)
MIC (CREC7): 32 µg/mL (≈ 83.4 µM)
MIC (CRKP1): > 32 µg/mL
MIC (CRKP2 [4]): > 32 µg/mL
MIC (CRKP3): > 32 µg/mL
MIC (CRKP4): 32 µg/mL (≈ 83.4 µM)
MIC (CRKP5): 32 µg/mL (≈ 83.4 µM)
MIC (CRKP6): > 32 µg/mL
MIC [5]: 16 µg/mL (≈ 41.7 µM)
MIC [6]: 8 µg/mL (≈ 20.9 µM)
MIC (P. aeruginosa UCBPP-PA01): < 1 µg/mL
MIC (P. aeruginosa UCBPP-PA14): 2 µg/mL (≈ 5.22 µM)
MIC (PRCB1): < 1 µg/mL
MIC (PREC1): < 1 µg/mL
MIC (PREC2): < 1 µg/mL
MIC (PREC3): < 1 µg/mL
MIC (S. aureus ATCC): < 1 µg/mL
MIC (Salmonella SL1344): < 1 µg/mL
bacterial titers in the liver, spleen, lung, and kidneys compared to the infection group (CRKP2 [7]): only slightly lower

From article PMC12207908, “The broad‐spectrum antimicrobial peptide BMAP‐27B potentiates carbapenems against NDM‐producing pathogens in food animals” (mLife, 2025)
